Data from patent US11426494B2, “Stents having biodegradable layers” (MT Acquisition Holdings LLC, priority 2007, dated 2022).

How the values were obtained:
[1] = rapamycin degradation in DES coating (peak area ratio, control vs Micell processed); assay type: physicochemical; settings: Micell processed materials vs control samples, FIG. 6
[2] = drug elution from DES coating; assay type: physicochemical; settings: heparin+taxol in DES coating, FIG. 9, preliminary data

For `CO[C@H]1C[C@@H]2CC[C@@H](C)[C@@](O)(O2)C(=O)C(=O)N2CCCC[C@H]2C(=O)O[C@H]([C@H](C)C[C@@H]2CC[C@@H](O)[C@H](OC)C2)CC(=O)[C@H](C)/C=C(\C)[C@@H](O)[C@@H](OC)C(=O)[C@H](C)C[C@H](C)/C=C/C=C/C=C/1C` [rapamycin], the “rate of rapamycin degradation (peak area ratio)” value [1] was “no difference in the rate of rapamycin degradation”.

With `CC(=O)O[C@H]1C(=O)[C@@]2(C)[C@H]([C@H](OC(=O)c3ccccc3)[C@]3(O)C[C@H](OC(=O)[C@H](O)[C@@H](NC(=O)c4ccccc4)c4ccccc4)C(C)=C1C3(C)C)[C@]1(OC(C)=O)CO[C@@H]1C[C@@H]2O` [taxol] the “primary drug (taxol) elution profile on addition of a 2nd drug (heparin)” value [2] was “not affecting primary drug (taxol) elution profile”.

Work on heparin yielded a heparin elution continuing [2] greater than 15 days.
